Laboratory results taken from patent US12559529B2, “NPY2 receptor agonists” (Boehringer Ingelheim International GmbH, priority 2019, dated 2026).
*1 amine or outer side, *2 acyl side, *3 side chain or, on linkers, in order; H or OH if unused. Where a SMILES comes first, the peptide text is derived from it. Side-chain parts run from the residue outwards. The star is where a group is joined. C18 diacid = O=C(O)CCCCCCCCCCCCCCCCC(=O)*; γGlu = O=C(O)[C@H](CCC(=O)[*:2])N[*:1]; Isovaleryl = CC(C)CC(=O)*; AEEA = NCCOCCOCC(=O)O

target: T1, Human Neuropeptide Y2 Receptor (Homo sapiens, UniProt P49146); assay: Radioligand binding competition assay (RLB); details: Table 3; human 125I-PYY (1-36) 0.02 nM, Y2 receptor membranes; read-out: Ki
T1 construct: purchased CHEMICON HTS066M
T1 sequence (P49146 1-381): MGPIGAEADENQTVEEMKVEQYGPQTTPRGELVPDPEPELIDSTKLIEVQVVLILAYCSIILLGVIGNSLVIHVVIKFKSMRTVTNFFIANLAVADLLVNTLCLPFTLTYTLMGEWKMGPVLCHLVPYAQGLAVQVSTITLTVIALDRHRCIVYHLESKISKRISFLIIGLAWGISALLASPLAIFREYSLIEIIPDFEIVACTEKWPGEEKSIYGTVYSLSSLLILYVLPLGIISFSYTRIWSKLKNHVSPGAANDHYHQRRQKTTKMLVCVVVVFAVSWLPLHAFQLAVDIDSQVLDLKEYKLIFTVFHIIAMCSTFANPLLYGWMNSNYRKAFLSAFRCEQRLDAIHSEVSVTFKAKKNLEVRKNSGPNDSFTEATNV
In short: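 Membranes (0.5 μg/well) and test peptides, serially diluted from 1 mM DMSO stocks, were incubated 2 hours at room temperature in HEPES buffer pH 7.4 with Mg, Ca and ovalbumin.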

Row | SMILES | Ki [nM]
1 | CC(C)CC(=O)N[C@@H](C)C(=O)N1CCC[C@H]1C(=O)N[C@@H](CCC(=O)O)C(=O)N[C@@H](CCCCNC(=O)COCCOCCNC(=O)COCCOCCNC(=O)CC[C@H](NC(=O)CCCCCCCCCCCCCCCCC(=O)O)C(=O)O)C(=O)N1CCC[C@H]1C(=O)N[C@@H](CCC(=O)O)C(=O)N[C@@H](CCC(=O)O)C(=O)N[C@@H](CC(=O)O)C(=O)N[C@@H](C)C(=O)N[C@@H](CO)C(=O)N1CCC[C@H]1C(=O)N[C@@H](C)C(=O)N[C@@H](CCC(=O)O)C(=O)N[C@@H](CC(C)C)C(=O)N[C@@H](CCC(N)=O)C(=O)N[C@@H](CCCNC(=N)N)C(=O)N[C@@H](Cc1ccc(O)cc1)C(=O)N[C@@H](Cc1ccc(O)cc1)C(=O)N[C@H](C(=O)N[C@@H](CCC(=O)O)C(=O)N[C@@H](CC(C)C)C(=O)N[C@@H](CCCNC(=N)N)C(=O)N[C@@H](Cc1c[nH]cn1)C(=O)N[C@@H](Cc1ccc(O)cc1)C(=O)N[C@@H](Cc1ccc(O)cc1)C(=O)N[C@@H](CC(N)=O)C(=O)N[C@@H](Cc1c[nH]c2ccccc12)C(=O)N[C@@H](CC(C)C)C(=O)N[C@H](C(=O)N[C@@H](CCCNC(=N)N)C(=O)N[C@@H](CCC(N)=O)C(=O)N[C@@H](CCCNC(=N)N)C(=O)N[C@@H](Cc1ccc(O)cc1)C(N)=O)[C@@H](C)O)C(C)C [Compound 215, N{alpha-4}-(3-methylbutanoyl)-N{epsilon-7}-[2-(2-{2-[2-(2-{2-[(4S)-4-carboxy-4-(17-carboxyheptadecanamido)butanamido]ethoxy}ethoxy)acetamido]ethoxy}ethoxy)acetamido]-[4A,7K,9E,15A,18Q,22V,23E,28Y,30W,31L]hPYY (4-36)] | 0.48
2 | CC(C)CC(=O)N[C@@H](C)C(=O)N1CCC[C@H]1C(=O)N[C@@H](C)C(=O)N[C@@H](CCCCNC(=O)COCCOCCNC(=O)COCCOCCNC(=O)CC[C@H](NC(=O)CCCCCCCCCCCCCCCCC(=O)O)C(=O)O)C(=O)N1CCC[C@H]1C(=O)N[C@@H](CCC(=O)O)C(=O)N[C@@H](CCC(=O)O)C(=O)N[C@@H](CC(=O)O)C(=O)N[C@@H](C)C(=O)N[C@@H](CO)C(=O)N1CCC[C@H]1C(=O)N[C@@H](CCC(=O)O)C(=O)N[C@@H](CCC(=O)O)C(=O)N[C@@H](CC(C)C)C(=O)N[C@@H](CCC(=O)O)C(=O)N[C@@H](CCC(N)=O)C(=O)N[C@@H](Cc1ccc(O)cc1)C(=O)N[C@@H](Cc1ccc(O)cc1)C(=O)N[C@H](C(=O)N[C@@H](CO)C(=O)N[C@@H](CC(C)C)C(=O)N[C@@H](CCCNC(=N)N)C(=O)N[C@@H](Cc1c[nH]cn1)C(=O)N[C@@H](Cc1ccc(O)cc1)C(=O)N[C@@H](Cc1ccc(O)cc1)C(=O)N[C@@H](CC(N)=O)C(=O)N[C@@H](Cc1c[nH]c2ccccc12)C(=O)N[C@@H](CC(C)C)C(=O)N[C@H](C(=O)N[C@@H](CCCNC(=N)N)C(=O)N[C@@H](CCC(N)=O)C(=O)N[C@@H](CCCNC(=N)N)C(=O)N[C@@H](Cc1ccc(O)cc1)C(N)=O)[C@@H](C)O)C(C)C [Compound 216, N{alpha-4}-(3-methylbutanoyl)-N{epsilon-7}-[2-(2-{2-[2-(2-{2-[(4S)-4-carboxy-4-(17-carboxyheptadecanamido)butanamido]ethoxy}ethoxy)acetamido]ethoxy}ethoxy)acetamido]-[4A,6A,7K,9E,18E,19Q,22V,28Y,30W,31L]hPYY (4-36)] (Isovaleryl-APAK([AEEA-AEEA-γGlu-C18 diacid])PEEDASPEELEQYYVSLRHYYNWLTRQRY-NH2) | 0.93
3 | CC(C)CC(=O)N[C@@H](C)C(=O)N1CCC[C@H]1C(=O)N[C@@H](CCC(=O)O)C(=O)N[C@@H](CCCCNC(=O)COCCOCCNC(=O)COCCOCCNC(=O)CC[C@H](NC(=O)CCCCCCCCCCCCCCCCC(=O)O)C(=O)O)C(=O)N1CCC[C@H]1C(=O)N[C@@H](CCC(=O)O)C(=O)N[C@@H](CCC(=O)O)C(=O)N[C@@H](CC(=O)O)C(=O)N[C@@H](CO)C(=O)N[C@@H](CO)C(=O)N1CCC[C@H]1C(=O)N[C@@H](CCC(=O)O)C(=O)N[C@@H](CCC(=O)O)C(=O)N[C@@H](CC(C)C)C(=O)N[C@@H](CCC(N)=O)C(=O)N[C@@H](CCCNC(=N)N)C(=O)N[C@@H](Cc1ccc(O)cc1)C(=O)N[C@@H](Cc1ccc(O)cc1)C(=O)N[C@H](C(=O)N[C@@H](C)C(=O)N[C@@H](CC(C)C)C(=O)N[C@@H](CCCNC(=N)N)C(=O)N[C@@H](Cc1c[nH]cn1)C(=O)N[C@@H](Cc1ccc(O)cc1)C(=O)N[C@@H](Cc1ccc(O)cc1)C(=O)N[C@@H](CC(N)=O)C(=O)N[C@@H](Cc1c[nH]c2ccccc12)C(=O)N[C@@H](CC(C)C)C(=O)N[C@H](C(=O)N[C@@H](CCCNC(=N)N)C(=O)N[C@@H](CCC(N)=O)C(=O)N[C@@H](CCCNC(=N)N)C(=O)N[C@@H](Cc1ccc(O)cc1)C(N)=O)[C@@H](C)O)C(C)C [Compound 218, N{alpha-4}-(3-methylbutanoyl)-N{epsilon-7}-[2-(2-{2-[2-(2-{2-[(4S)-4-carboxy-4-(17-carboxyheptadecanamido)butanamido]ethoxy}ethoxy)acetamido]ethoxy}ethoxy)acetamido]-[4A,7K,9E,12S,18Q,22V,23A,28Y,30W,31L]hPYY (4-36)] | 1.49
4 | CC(C)CC(=O)N[C@@H](C)C(=O)N1CCC[C@H]1C(=O)N[C@@H](CCC(=O)O)C(=O)N[C@@H](CCCCNC(=O)COCCOCCNC(=O)COCCOCCNC(=O)CC[C@H](NC(=O)CCCCCCCCCCCCCCCCC(=O)O)C(=O)O)C(=O)N1CCC[C@H]1C(=O)N[C@@H](CCC(=O)O)C(=O)N[C@@H](CCC(=O)O)C(=O)N[C@@H](CCC(=O)O)C(=O)N[C@@H](C)C(=O)N[C@@H](C)C(=O)N1CCC[C@H]1C(=O)N[C@@H](CCC(=O)O)C(=O)N[C@@H](CCC(=O)O)C(=O)N[C@@H](CC(C)C)C(=O)N[C@@H](CCC(N)=O)C(=O)N[C@@H](CCCNC(=N)N)C(=O)N[C@@H](Cc1ccc(O)cc1)C(=O)N[C@@H](Cc1ccc(O)cc1)C(=O)N[C@H](C(=O)N[C@@H](CO)C(=O)N[C@@H](CC(C)C)C(=O)N[C@@H](CCCNC(=N)N)C(=O)N[C@@H](Cc1c[nH]cn1)C(=O)N[C@@H](Cc1ccc(O)cc1)C(=O)N[C@@H](Cc1ccc(O)cc1)C(=O)N[C@@H](CC(N)=O)C(=O)N[C@@H](Cc1c[nH]c2ccccc12)C(=O)N[C@@H](CC(C)C)C(=O)N[C@H](C(=O)N[C@@H](CCCNC(=N)N)C(=O)N[C@@H](CCC(N)=O)C(=O)N[C@@H](CCCNC(=N)N)C(=O)N[C@@H](Cc1ccc(O)cc1)C(N)=O)[C@@H](C)O)C(C)C [Compound 219, N{alpha-4}-(3-methylbutanoyl)-N{epsilon-7}-[2-(2-{2-[2-(2-{2-[(4S)-4-carboxy-4-(17-carboxyheptadecanamido)butanamido]ethoxy}ethoxy)acetamido]ethoxy}ethoxy)acetamido]-[4A,7K,9E,11E,13A,18Q,22V,28Y,30W,31L]hPYY (4-36)] | 7.6
